This note sets out measurements from EP0802184B1, “N-Benzyl-2-phenylindoles as estrogenic agents” (Wyeth, priority 1996, dated 1997).

Assay [1] deals with T1, estrogen receptor (Homo sapiens, UniProt P03372).
T1 sequence (P03372 1-595): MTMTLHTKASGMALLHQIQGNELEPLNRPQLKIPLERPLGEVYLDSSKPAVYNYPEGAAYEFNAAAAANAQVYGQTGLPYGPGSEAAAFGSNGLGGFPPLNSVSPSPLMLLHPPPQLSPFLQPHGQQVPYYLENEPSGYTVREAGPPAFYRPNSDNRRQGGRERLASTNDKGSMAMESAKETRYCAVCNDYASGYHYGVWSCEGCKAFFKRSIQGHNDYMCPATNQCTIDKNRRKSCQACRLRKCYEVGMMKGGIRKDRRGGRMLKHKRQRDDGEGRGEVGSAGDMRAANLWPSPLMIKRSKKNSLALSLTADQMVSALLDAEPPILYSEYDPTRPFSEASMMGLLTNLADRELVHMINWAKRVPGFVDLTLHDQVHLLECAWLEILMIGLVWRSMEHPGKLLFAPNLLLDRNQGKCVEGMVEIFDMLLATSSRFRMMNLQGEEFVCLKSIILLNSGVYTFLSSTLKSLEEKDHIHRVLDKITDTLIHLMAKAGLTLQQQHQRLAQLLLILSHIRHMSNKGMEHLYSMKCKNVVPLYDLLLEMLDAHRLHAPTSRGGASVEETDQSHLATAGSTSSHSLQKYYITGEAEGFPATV
Put plainly: 2X VIT ERE Transfection Assay (Infection Luciferase Assay). The format is cell-based. The conditions noted are these: 24 h; for % Activation with 1 nM 17β-estradiol: 1 uM compound + 1 nM 17β-estradiol (test for estrogen antagonism); for % Activation: compound alone (1 uM), compared to 17β-estradiol. As for the experimental part:
Chinese Hamster Ovary cells (CHO) which had been stably transfected with the human estrogen receptor were maintained in DMEM + 10% fetal bovine serum (FBS). 48h prior to treatment the growth medium was replaced with DMEM lacking phenol red + 10% dextran coated charcoal stripped FBS (treatment medium). Cells were plated at a density of 5000 cells/well in 96-well plates containing 200 µL of medium/well.
Reporter DNA (Promega plasmid pGL2 containing two tandem copies of the vitellogenin ERE in front of the minimal thymidine kinase promoter driving the luciferase gene) was combined with the B-galactosidase expression plasmid pCH110 (Pharmacia) and carrier DNA (pTZ18U) in the following ratio: • 10uG of reporter DNA • 5uG of pCH110DNA • 5 uG of pTZ18U • 20 uG of DNA/1 mL of transfection solution
20 uL of this mixture was added to each well of cells and remained on the cells for 16 h. […] Each treatment condition was performed on 8 wells (n=8) which were incubated for 24 h prior to the luciferase assay.
After removing the PBS, 25 uL of Promega lysis buffer was added to each well and allowed to stand at room temperature for 15 min, followed by 15 min at -80°C and 15 min at 37°C. 20 uL of lysate was transferred to an opaque 96 well plate for luciferase activity evaluation and the remaining lysate (5 uL) was used for the B-galactosidase activity evaluation (normalize transfection). The luciferan substrate (Promega) was added in 100 uL aliquots to each well automatically by the luminometer and the light produced (relative light units) was read 10 seconds after addition.
To the remaining 5 uL of lysate 45 uL of PBS was added. Then 50 uL of Promega B-galactosidase 2X assay buffer was added, mixed well and incubated at 37°C for 1 hour. A plate containing a standard curve (0.1 to 1.5 milliunits in triplicate) was set up for each experimental run. The plates were analyzed on a Molecular Devices spectrophotometric plate reader at 410 nm. The optical densities for the unknown were converted to milliunits of activity by mathematical extrapolation from the standard curve.
The luciferase data was generated as relative light units (RLUs) accumulated during a 10 second measurement and automatically transferred to a JMP (SAS Inc) file where background RLUs were subtracted. The B-galactosidase values were automatically imported into the file and these values were divided into the RLUs to normalize the data. The mean and standard deviations were determined from a n=8 for each treatment. […] These techniques are described by Tzukerman, M.T., Esty, A., Santiso-Mere, D., Danielian, P., Parker, M.G., Stein, R.B., Pike, J.W. and McDonnel, D.P. (1994). Human estrogen receptor transactivational capacity was determined by both cellular and promoter context and mediated by two functionally distinct intramolecular regions (see Molecular Endocrinology, 8:21-30).

Assay [2] concerns the target T1, estrogen receptor. Put plainly: In vitro estrogen receptor binding assay (competition with [3H]-17β-estradiol). Details: expressed in transfected cells; host or cells: CHO cells (ribosome-free cytosol). The conditions noted are these: relative to 17β-estradiol=100; cytosol of CHO cells overexpressing the estrogen receptor. The protocol:
CHO cells overexpressing the estrogen receptor were grown in 150 mm^2 dishes in DMEM + 10% dextran coated charcoal, stripped fetal bovine serum. The plates were washed twice with PBS and once with 10mM Tris-HCl, pH 7.4, 1mM EDTA. Cells were harvested by scraping the surface and then the cell suspension was placed on ice. Cells were disrupted with a hand-held motorized tissue grinder using two, 10-second bursts. The crude preparation was centrifuged at 12,000g for 20 minutes followed by a 60 minute spin at 100,000g to produce a ribosome free cytosol. The cytosol was then frozen and stored at -80°C. Protein concentration of the cytosol was estimated using the BCA assay with reference standard protein.
100uG/100uL of the receptor preparation was aliquoted per well. […] The plate was incubated at room temperature for 2.5 h. At the end of this incubation period 150 uL of ice-cold dextran coated charcoal (5% activated charcoal coated with 0.05% 69K dextran) was added to each well and the plate was immediately centrifuged at 99g for 5 minutes at 4°C. 200 uL of the supernatant solution was then removed for scintillation counting. Samples were counted to 2% or 10 minutes, whichever occurs first. […] Also, wells containing radioactivity but no cytosol were processed with charcoal to estimate unremovable DPM of [^3H]
Counts per minute (CPM) of radioactivity were automatically converted to disintegrated per minute (DPM) by the Beckman LS 7500 Scintillation Counter using a set of quenched standards to generate a H# for each sample.
For the generation of IC50 curves, % binding is plotted vs compound. […] For a description of these methods, see Hulme, E.C., ed. 1992. Receptor-Ligand Interactions: A Practical Approach. IRL Press, New York.(see especially chapter 8).

The test system of another assay is Ishikawa cells. Put plainly: Ishikawa Cell Alkaline Phosphatase Assay. The format is cell-based, human. The conditions noted are these: 48 h; for % Activation (Compound + 1 nM 17β-estradiol): 10^-6 M compound + 10^-9 M 17β-estradiol; for % Activation: compound alone, percent of response related to 1 nM 17β-estradiol. The protocol: Cells were treated for 48 h prior to assay. […] Sample population for at each dose was n=8. […] Plates are placed at -80°C for a minimum of 15 minutes. Plates are thawed at 37°C followed by the addition of 150μL of 0.1 M Tris-HCl, pH 9.8, containing 4 mM para-nitrophenylphosphate (pNPP) to each well (final concentration, 3 mM pNPP). Absorbance and slope calculations were made using the […] Application program (Bio-Tek Instruments, Inc., Winooski, VT). […] Various compounds were assayed for estrogenic activity by the alkaline phosphatase method and corresponding ED50 values (95% C.I.) were calculated. The four listed in the following were used as reference standards: A description of such methods is provided by Holinka, […]., Kuramoto, H. and Gurpide, E. (1986) Effects of steroid hormones and antisteroids on alkaline phosphatase activity in human endometrial cancer cells (Ishikawa Line). Cancer Research, 46:2771-2774, and by […]. and by […] simple and sensitive microtiter plate estrogen bioassay based on stimulation alkaline phosphatase in Ishikawa cells; […] Endocrinology, 6:2757-2762.

The structures appear in SMILES notation.

In the case of `CNC(=O)/C=C/c1ccc(Cn2c(-c3ccc(O)cc3)c(C)c3cc(O)ccc32)cc1` [Example 15, (E)-N, Methyl-3-{4-[5-hydroxy-2-(4-hydroxy-phenyl)-3-methyl-indol-1-ylmethyl]-phenyl}-acrylamide], on estrogen receptor [1], the “% Activation with 1 nM 17β-estradiol” value is recorded as 31% and the “% Activation” value turned out to be 15%. The “Estrogen Receptor Affinity (reported as RBA: 17β-estradiol=100)” value on estrogen receptor [2] is recorded as 53. Further, in the assay on Ishikawa cells, the “% Activation (Compound + 1 nM 17β-estradiol)” value worked out at 5% and the “% Activation” value was 0%.

For `Cc1c(-c2ccc(O)cc2)n(Cc2ccc(/C=C/C(=O)NC(C)(C)C)cc2)c2ccc(O)cc12` [Example 8, 1(E)-N-tert-butyl-3-{4-[5-hydroxy-2-(4-hydroxy-phenyl)-3-methyl-indol-1-ylmethyl]-phenyl}-acrylamide], on estrogen receptor [1], the “% Activation with 1 nM 17β-estradiol” value is on record as 78% and the “% Activation” value came to 6%. The “Estrogen Receptor Affinity (reported as RBA: 17β-estradiol=100)” value at estrogen receptor [2] came out at 40. In the assay with Ishikawa cells, the “% Activation (Compound + 1 nM 17β-estradiol)” value worked out at 22% and the “% Activation” value amounted to 10%.
